In ChEMBL document CHEMBL5465560, “Selectivity Literature for EUbOPEN Chemogenomic Library” (2024):

Columns and labels:
[1] = biological target: T1, cGMP-dependent protein kinase 1 (Homo sapiens) (UniProt Q13976); assay: Selectivity interaction (KinomeScan (DiscoverX)) EUB0000666a PRKG1; conditions: at 10 µM
T1 sequence (whole entry): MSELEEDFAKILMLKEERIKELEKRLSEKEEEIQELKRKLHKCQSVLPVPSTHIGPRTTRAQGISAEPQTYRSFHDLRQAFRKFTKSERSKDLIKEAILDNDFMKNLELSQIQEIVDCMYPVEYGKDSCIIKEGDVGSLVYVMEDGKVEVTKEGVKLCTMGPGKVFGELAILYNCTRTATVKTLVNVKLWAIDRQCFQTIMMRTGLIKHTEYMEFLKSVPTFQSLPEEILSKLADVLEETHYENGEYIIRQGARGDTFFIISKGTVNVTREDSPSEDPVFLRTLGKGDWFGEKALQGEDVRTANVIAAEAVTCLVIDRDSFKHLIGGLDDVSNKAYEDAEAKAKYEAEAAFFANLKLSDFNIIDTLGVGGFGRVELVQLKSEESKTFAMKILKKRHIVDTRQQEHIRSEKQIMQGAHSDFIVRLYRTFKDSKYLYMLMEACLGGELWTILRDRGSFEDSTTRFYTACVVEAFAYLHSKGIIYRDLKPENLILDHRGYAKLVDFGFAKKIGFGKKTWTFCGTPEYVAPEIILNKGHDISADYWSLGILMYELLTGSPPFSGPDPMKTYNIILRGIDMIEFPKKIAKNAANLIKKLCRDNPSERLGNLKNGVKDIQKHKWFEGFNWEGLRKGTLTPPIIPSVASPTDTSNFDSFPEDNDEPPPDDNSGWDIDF

[2] = biological target: T2, Non-receptor tyrosine-protein kinase TNK1 (Homo sapiens) (UniProt Q13470); assay: Selectivity interaction (KinomeScan (DiscoverX)) EUB0000607a TNK1; conditions: at 10 µM
T2 sequence (whole entry): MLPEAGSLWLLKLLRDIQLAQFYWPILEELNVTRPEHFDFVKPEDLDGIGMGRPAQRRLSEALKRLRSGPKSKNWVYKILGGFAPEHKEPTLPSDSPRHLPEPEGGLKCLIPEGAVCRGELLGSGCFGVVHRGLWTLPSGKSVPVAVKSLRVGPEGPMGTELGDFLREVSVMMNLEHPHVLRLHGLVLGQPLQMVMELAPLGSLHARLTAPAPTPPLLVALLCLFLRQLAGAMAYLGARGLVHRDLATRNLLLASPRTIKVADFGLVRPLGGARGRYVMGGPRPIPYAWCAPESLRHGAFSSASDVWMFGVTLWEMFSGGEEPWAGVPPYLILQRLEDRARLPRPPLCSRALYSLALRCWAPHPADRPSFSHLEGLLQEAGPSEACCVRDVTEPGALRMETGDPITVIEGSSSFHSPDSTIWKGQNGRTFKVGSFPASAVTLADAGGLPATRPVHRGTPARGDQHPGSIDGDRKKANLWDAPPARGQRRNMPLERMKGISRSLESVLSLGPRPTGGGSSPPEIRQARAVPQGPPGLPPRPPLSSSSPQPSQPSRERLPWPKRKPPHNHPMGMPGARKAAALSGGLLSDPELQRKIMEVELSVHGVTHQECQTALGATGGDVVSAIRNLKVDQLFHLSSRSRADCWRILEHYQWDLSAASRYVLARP

[3] = biological target: T3, Serine/threonine-protein kinase tousled-like 1 (Homo sapiens) (UniProt Q9UKI8); assay: Selectivity interaction (KinomeScan (DiscoverX)) EUB0000695a TLK1; conditions: at 100 nM
T3 sequence (whole entry): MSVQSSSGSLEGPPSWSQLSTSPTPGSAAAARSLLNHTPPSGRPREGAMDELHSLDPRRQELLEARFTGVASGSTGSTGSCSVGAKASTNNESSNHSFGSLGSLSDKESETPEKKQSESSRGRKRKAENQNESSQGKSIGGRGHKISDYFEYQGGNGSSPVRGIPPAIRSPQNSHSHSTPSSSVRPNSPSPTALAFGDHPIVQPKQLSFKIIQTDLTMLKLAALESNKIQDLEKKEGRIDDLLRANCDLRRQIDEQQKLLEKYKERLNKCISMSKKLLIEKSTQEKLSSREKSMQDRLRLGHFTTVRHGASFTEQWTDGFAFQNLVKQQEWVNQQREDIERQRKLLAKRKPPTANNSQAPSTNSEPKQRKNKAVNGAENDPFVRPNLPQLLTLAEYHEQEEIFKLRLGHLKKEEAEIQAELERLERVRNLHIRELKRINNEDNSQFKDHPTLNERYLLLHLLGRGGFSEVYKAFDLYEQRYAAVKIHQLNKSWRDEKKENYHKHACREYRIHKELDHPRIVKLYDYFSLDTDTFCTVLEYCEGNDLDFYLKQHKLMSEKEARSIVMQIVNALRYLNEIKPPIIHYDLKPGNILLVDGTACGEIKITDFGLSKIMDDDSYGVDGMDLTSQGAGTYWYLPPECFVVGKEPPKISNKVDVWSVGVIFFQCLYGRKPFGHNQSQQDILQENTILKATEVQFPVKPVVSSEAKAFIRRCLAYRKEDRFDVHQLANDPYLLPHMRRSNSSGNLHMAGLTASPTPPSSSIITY

[4] = biological target: T4, Phosphatidylinositol 5-phosphate 4-kinase type-2 beta (Homo sapiens) (UniProt P78356); assay: Selectivity interaction (KinomeScan (DiscoverX)) EUB0000229b PIP4K2B; conditions: at 10 µM
T4 sequence (whole entry): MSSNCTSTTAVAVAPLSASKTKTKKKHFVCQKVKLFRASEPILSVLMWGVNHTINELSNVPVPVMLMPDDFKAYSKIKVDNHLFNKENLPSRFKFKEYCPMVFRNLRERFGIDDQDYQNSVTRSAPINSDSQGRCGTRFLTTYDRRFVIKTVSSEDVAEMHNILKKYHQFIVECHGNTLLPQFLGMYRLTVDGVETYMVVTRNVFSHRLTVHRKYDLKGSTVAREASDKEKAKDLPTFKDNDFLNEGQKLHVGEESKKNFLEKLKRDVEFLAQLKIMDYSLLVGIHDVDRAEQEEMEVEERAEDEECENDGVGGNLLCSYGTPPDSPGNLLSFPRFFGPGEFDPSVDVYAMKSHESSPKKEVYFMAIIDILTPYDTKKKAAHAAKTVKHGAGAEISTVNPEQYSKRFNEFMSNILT

`O=C(NOC[C@H](O)CO)c1ccc(F)c(F)c1Nc1ccc(I)cc1F` showed a % of control [1] of 100%.

For `CNC(=O)Nc1ccc(-c2nc(N3CC4CCC(C3)O4)c3cnn(C4CCC5(CC4)OCCO5)c3n2)cc1`, the % of control [2] was 78%.

Compound `Cc1cc(F)c(C(=O)Nc2cccc(-c3nncn3C(C)C)n2)cc1-n1cnc(C2CC2)c1` has a % of control [3] of 88%.

Compound `COc1cc(N(C)c2ccnc3ccc(C(F)(F)F)cc23)cc(OC)c1OC` has a % binding [4] of 100%.
